One data set concerns the target T1, hMAO-A (Homo sapiens, UniProt P21397).
T1 sequence (P21397 1-527): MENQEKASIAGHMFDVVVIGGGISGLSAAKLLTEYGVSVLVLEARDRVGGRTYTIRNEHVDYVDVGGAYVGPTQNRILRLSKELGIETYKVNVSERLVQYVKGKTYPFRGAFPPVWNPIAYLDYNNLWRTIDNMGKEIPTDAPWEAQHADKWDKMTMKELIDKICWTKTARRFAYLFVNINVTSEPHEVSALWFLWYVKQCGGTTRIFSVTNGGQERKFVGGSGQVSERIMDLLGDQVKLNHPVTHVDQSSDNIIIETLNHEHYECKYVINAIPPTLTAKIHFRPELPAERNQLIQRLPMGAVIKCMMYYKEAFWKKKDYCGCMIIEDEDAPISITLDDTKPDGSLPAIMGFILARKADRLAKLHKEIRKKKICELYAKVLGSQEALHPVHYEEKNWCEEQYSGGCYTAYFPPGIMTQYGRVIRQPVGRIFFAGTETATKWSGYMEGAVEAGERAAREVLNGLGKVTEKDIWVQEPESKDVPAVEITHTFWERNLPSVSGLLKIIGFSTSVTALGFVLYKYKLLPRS
Put plainly: In vitro fluorometric MAO-A inhibition assay. Type of data set: biochemical. The conditions noted are these: for inhibition at 1000 µM: 10^−3 M; for inhibition at 100 µM: 10^−4 M. How it is done:
(§1) The inhibition power on MAO isoenzymes of the synthesized compounds was evaluated by using the in vitro fluorometric method declared previously by our research group.
(§2) The in vitro MAO inhibition test was performed using the available fluorometric method, and the percentages and IC50 values of obtained compounds were calculated as previously described by our research group.

For data set [1], the target named is T2, hMAO-B (Homo sapiens, UniProt P27338).
T2 sequence (P27338 1-520): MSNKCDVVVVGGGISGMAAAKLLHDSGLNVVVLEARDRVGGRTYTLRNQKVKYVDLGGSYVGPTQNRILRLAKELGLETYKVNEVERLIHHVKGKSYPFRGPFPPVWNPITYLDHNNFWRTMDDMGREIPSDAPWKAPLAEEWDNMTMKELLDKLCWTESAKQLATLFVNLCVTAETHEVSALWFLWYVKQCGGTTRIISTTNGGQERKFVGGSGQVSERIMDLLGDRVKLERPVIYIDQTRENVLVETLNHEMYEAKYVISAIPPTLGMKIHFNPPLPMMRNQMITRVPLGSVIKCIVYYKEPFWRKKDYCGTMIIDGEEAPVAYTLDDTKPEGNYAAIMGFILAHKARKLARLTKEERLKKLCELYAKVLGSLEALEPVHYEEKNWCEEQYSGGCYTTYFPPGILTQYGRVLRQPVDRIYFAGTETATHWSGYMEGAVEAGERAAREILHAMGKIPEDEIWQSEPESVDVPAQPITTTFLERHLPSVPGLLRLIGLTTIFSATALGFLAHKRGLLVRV
Put plainly: In vitro fluorometric MAO-B inhibition assay. Type of data set: biochemical. Conditions: for inhibition at 1000 µM: 10^−3 M; for inhibition at 100 µM: 10^−4 M; for inhibition at 10 µM: 10^−5 M; for inhibition at 1 µM: 10^−6 M; for inhibition at 0.1 µM: 10^−7 M; for inhibition at 0.01 µM: 10^−8 M; for inhibition at 0.001 µM: 10^−9 M; for IC50: read-out: IC50 against MAO-B. The method, then: as §1, §2

Data set [2] concerns NIH/3T3 mouse embryonic fibroblast cell line. Put plainly: MTT cytotoxicity assay. The conditions noted are these: for Cytotoxicity at effective concentration against MAO-B: MTT assay, NIH/3T3. The class given is cell-based. How it is done:
(§3) The NIH/3T3 mouse embryonic fibroblast cell line (ATCC® CRL-1658™, London, UK) was used for cytotoxicity assays. The incubation period of NIH/3T3 cells was based on the supplier’s recommendation. NIH/3T3 cells were seeded at 1 × 10^4 cells into each well of 96-well plates. MTT assay was carried out in accordance with the standards previously described.
(Tetrazolium assays rely on reduction of a dye to a coloured formazan, in cell work by metabolically active cells.)

The nature of the next data set: MTT cytotoxicity assay. Type of data set: cell-based, mouse. The conditions noted are these: mouse, NIH/3T3 mouse embryonic fibroblast cells; MTT assay; read-out: IC50 against NIH/3T3 cells. The method, then:
as §3

The target in data set [3] is T2, hMAO-B. Put plainly: Enzyme kinetic study (Lineweaver–Burk and secondary plots) of hMAO-B inhibition. Type of data set: biochemical. Conditions: substrate tyramine; for Type of hMAO-B inhibition: Lineweaver–Burk plots; for Ki: secondary plots, read-out: Ki (steady-state inhibition constant) for hMAO-B. The source says:
Enzyme kinetic studies help to determine the inhibitory character of the relevant compound on the enzyme as irreversible or reversible inhibition, and to evaluate the nature of the inhibition of the relevant compound. The linear Lineweaver–Burk plots are the most commonly used method for this purpose. […] Enzyme kinetic assay was applied in the same way as previously mentioned. […] The rate curves of substrates were reported in the absence and presence of these compounds. In all cases, initial velocity measurements were collected at various substrate (tyramine) concentrations ranging from 20 µM to 0.625 µM. Thus, linear Lineweaver–Burk graphs of compounds 2b and 2h were formed as in Figure 4A and Figure 5A, respectively.
According to Lineweaver–Burk plots, reversible and irreversible inhibition type constitute two general categories. Mixed-type, uncompetitive, competitive, and non-competitive inhibition types are included in the reversible inhibition.
The same materials used in the MAO inhibition assay were used in this experiment. […] All processes were evaluated in quadruplicate. The results were analyzed with Microsoft Office Excel 2013 using Lineweaver–Burk diagrams. […] of the Lineweaver–Burk plots were replotted versus the inhibitors’ concentrations, and the Ki values were determined from the x-axis intercept as -Ki.

Structures are written as SMILES.

The term inhibition denotes the drop in the measured response relative to a control, in per cent. Lower therefore signals a response near the control. By melting point is commonly meant the temperature, or range, at which the solid turns liquid. The Ki is the equilibrium dissociation constant of an inhibitor or competing ligand from its target.

In turn, `CCNC(=S)NN=Cc1cc2ccccc2o1` [Compound 2a, 2-(Benzofuran-2-ylmethylene)-N-ethylhydrazine-1-carbothioamide] had a melting point of 179.9 to 182.1 °C. At hMAO-A, the inhibition at 1000 µM was found to be 34.1 ± 0.927% and at 100 µM the inhibition was 22.3 ± 0.824%. On hMAO-B [1], this compound had an inhibition at 1000 µM of 74.2 ± 1.41% and an inhibition at 100 µM of 46.4 ± 0.997%.
`COCCNC(=S)NN=Cc1cc2ccccc2o1` [Compound 2b, 2-(Benzofuran-2-ylmethylene)-N-(2-methoxyethyl)hydrazine-1-carbothioamide] had a melting point of 147.5 to 148.8 °C. Moreover, the “Cytotoxicity at effective concentration against MAO-B” value in data set [2] was “non-cytotoxic”. In addition, the IC50 in data set [2] (Mus musculus, NIH3T3, Table 3 column 1 as headed) was found to be 0.042 ± 0.002 µM. Also, the IC50 in “MTT cytotoxicity assay” amounted to 130 µM. On hMAO-A, this compound came in with an inhibition at 1000 µM of 33 ± 0.955% and an inhibition at 100 µM of 28.4 ± 0.899%. On hMAO-B [3], the “Type of hMAO-B inhibition” value was “reversible and non-competitive”; the Ki was determined as 0.035 µM. At hMAO-B [1], testing at 1000 µM gave an inhibition of 91.6 ± 1.65%, the inhibition at 10 µM is 81.5 ± 1.72%, the inhibition at 1 µM came out at 75 ± 1.63% and testing at 0.1 µM gave an inhibition of 66.4 ± 0.975%. For the same compound, at hMAO-B [1], the inhibition at 0.01 µM is 41.5 ± 0.856%, the inhibition at 0.001 µM is 25.8 ± 0.765% and the IC50 was found to be 0.042 ± 0.002 µM.
As to `CCCCNC(=S)NN=Cc1cc2ccccc2o1` [Compound 2c, 2-(Benzofuran-2-ylmethylene)-N-butylhydrazine-1-carbothioamide], the melting point was 120.4 to 121.2 °C. On hMAO-A, this compound yielded an inhibition at 1000 µM of 30.4 ± 0.902% and an inhibition at 100 µM of 26.7 ± 0.82%. At hMAO-B [1], the inhibition at 1000 µM came to 76.3 ± 1.62% and the inhibition at 100 µM was found to be 43.5 ± 0.728%.
For the compound `S=C(NN=Cc1cc2ccccc2o1)NC1CCCCC1` [Compound 2d, 2-(Benzofuran-2-ylmethylene)-N-cyclohexylhydrazine-1-carbothioamide], the melting point lay within 191.2 to 192.9 °C. At hMAO-A, this compound registered an inhibition at 1000 µM of 37.5 ± 0.897% and an inhibition at 100 µM of 20.9 ± 0.834%. On hMAO-B [1], at 1000 µM the inhibition was 82.6 ± 1.32% and the inhibition at 100 µM was 41.1 ± 0.956%.
In the same order, the values of `S=C(NN=Cc1cc2ccccc2o1)Nc1ccccc1` [Compound 2e, 2-(Benzofuran-2-ylmethylene)-N-phenylhydrazine-1-carbothioamide] are 205.2 to 206.8 °C, 36.7 ± 0.91%, 23.4 ± 0.832%, 85.5 ± 1.53% and 40.8 ± 0.827%.
For `S=C(NN=Cc1cc2ccccc2o1)Nc1ccccc1Cl` [Compound 2f, 2-(Benzofuran-2-ylmethylene)-N-(2-chlorophenyl)hydrazine-1-carbothioamide] the same measures were 203.6 to 204.9 °C, 31.1 ± 0.994%, 24.2 ± 0.711%, 82.4 ± 1.33% and 47.4 ± 0.93%.
For `CCNC(=S)NN=Cc1cc2ccccc2s1` [Compound 2g, 2-(Benzo[b]thiophen-2-ylmethylene)-N-ethylhydrazine-1-carbothioamide] the same measures were 198.9 to 201 °C, 38.9 ± 0.854%, 28.7 ± 0.803%, 79 ± 1.7% and 44.8 ± 0.758%.
Compound `COCCNC(=S)NN=Cc1cc2ccccc2s1` [Compound 2h, 2-(Benzo[b]thiophen-2-ylmethylene)-N-(2-methoxyethyl)hydrazine-1-carbothioamide] had a melting point of 164.9 to 166.2 °C. Further, in data set [2], the “Cytotoxicity at effective concentration against MAO-B” value is recorded as “non-cytotoxic”. Besides, the IC50 in the data set “MTT cytotoxicity assay” is 81.3 µM. At hMAO-A, this compound registered an inhibition at 1000 µM of 36.8 ± 0.741% and an inhibition at 100 µM of 21.9 ± 0.75%. Besides, on hMAO-B [3], the “Type of hMAO-B inhibition” value was “reversible and non-competitive”; the Ki came to 0.046 µM. Further, on hMAO-B [1], the inhibition at 1000 µM came out at 90.4 ± 1.6%, the inhibition at 10 µM was determined as 80.8 ± 1.04%, 1 µM produced 72.2 ± 1.39% inhibition and at 0.1 µM the inhibition was 65 ± 1.11%. Further, at hMAO-B [1], the inhibition at 0.01 µM amounted to 42.8 ± 0.948%, the inhibition at 0.001 µM is 30.9 ± 0.782% and the IC50 was 0.056 ± 0.002 µM.
As for `CCCCNC(=S)NN=Cc1cc2ccccc2s1` [Compound 2i, 2-(Benzo[b]thiophen-2-ylmethylene)-N-butylhydrazine-1-carbothioamide], the melting point lay in the range of 168.9 to 170.7 °C. On hMAO-A, the inhibition at 1000 µM was found to be 35.7 ± 0.863% and 100 µM produced 29.2 ± 0.816% inhibition. Further, at hMAO-B [1], testing at 1000 µM gave an inhibition of 84.7 ± 1.63% and testing at 100 µM gave an inhibition of 46 ± 0.931%.
Compound `S=C(NN=Cc1cc2ccccc2s1)NC1CCCCC1` [Compound 2j, 2-(Benzo[b]thiophen-2-ylmethylene)-N-cyclohexylhydrazine-1-carbothioamide] returned a melting point of 213.7 to 215.1 °C. On hMAO-A, this compound returned an inhibition at 1000 µM of 33.7 ± 0.729% and an inhibition at 100 µM of 23 ± 0.863%. In addition, on hMAO-B [1], testing at 1000 µM gave an inhibition of 82.9 ± 1.62% and the inhibition at 100 µM was 43 ± 0.965%.
In turn, `S=C(NN=Cc1cc2ccccc2s1)Nc1ccccc1` [Compound 2k, 2-(Benzo[b]thiophen-2-ylmethylene)-N-phenylhydrazine-1-carbothioamide] displayed a melting point of 213.9 to 216 °C. At hMAO-A, this compound registered an inhibition at 1000 µM of 31.1 ± 0.911% and an inhibition at 100 µM of 27.9 ± 0.815%. At hMAO-B [1], this compound came in with an inhibition at 1000 µM of 80.5 ± 1.48% and an inhibition at 100 µM of 46.7 ± 0.899%.
`S=C(NN=Cc1cc2ccccc2s1)Nc1ccccc1Cl` [Compound 2l, 2-(Benzo[b]thiophen-2-ylmethylene)-N-(2-chlorophenyl)hydrazine-1-carbothioamide] registered a melting point of 212.6 to 214.4 °C. Further, at hMAO-A, testing at 1000 µM gave an inhibition of 36.7 ± 0.966% and the inhibition at 100 µM was 24.4 ± 0.721%. Moreover, at hMAO-B [1], the inhibition at 1000 µM is 83.6 ± 1.6% and at 100 µM the inhibition was 42.2 ± 0.763%.

Values taken from publication PMC8587871, “Novel Thiosemicarbazone Derivatives: In Vitro and In Silico Evaluation as Potential MAO-B Inhibitors” (Molecules, 2021).
